Columns and labels:
[1] = system: K562 cells; test: Apoptosis by morphological analysis of Wright Giemsa-stained cytospin preparations; format: cell-based, human; conditions: K562; for effect of caspase inhibitor on Compound I/SAHA-induced apoptosis: Compound I + SAHA with 25 μM inhibitor
Protocol: (§1) Experimental Format: Logarithmically growing cells are placed in sterile plastic T-flasks (Corning, Corning, N.Y.) to which are added the designated drugs and the flasks replaced in the incubator for intervals. At the end of the incubation period, cells are transferred to sterile centrifuge tubes, pelleted by centrifugation at 400×g for 10 min at room temperature, and prepared for analysis as described below.
(§2) Assessment of Apoptosis: After drug exposures, cytocentrifuge preparations are stained with Wright-Giemsa and viewed by light microscopy to evaluate the extent of apoptosis (i.e., cell shrinkage, nuclear condensation, formation of apoptotic bodies, etc.) as described previously (Yu et al., Nat. Rev. Cancer 1:294-202). For these studies, the percentage of apoptotic cells is determined by evaluating ≧500 cells/condition in triplicate. To confirm the results of morphological analysis, Annexin V/PI staining is used. Annexin V/PI (BD PharMingen, San Diego, Calif.) analysis of cell death is carried out as per the manufacturer's instructions. In studies involving TNF and TNF soluble receptor, both compound are combined and maintained at room temperature 20 min prior to use. For these experiments 1-2×10^5 cells per condition are harvested. Analysis is carried out using a Becton-Dickinson FACScan cytofluorometer (Mansfield, Mass.). To further confirm the morphology results, TUNEL staining is used. For TUNEL staining, cytocentrifuge preparations are obtained and fixed with 4% formaldehyde. The slides are treated with acetic acid/ethanol (1:2), stained with terminal transferase reaction mixture containing 1× terminal transferase reaction buffer (0.25 units/μl terminal transferase, 2.5 mM CoCl2, and 2 pmol fluorescein-12-dUTM; Boehringer Mannheim, Indianapolis, Ind.), and visualized using fluorescence microscopy.

[2] = system: LAMA 84 cells; test: Apoptosis by cytospin slides; format: cell-based, human; conditions: Table 6; LAMA 84; 24 hr; sodium butyrate (SB; 1 or 2 mM); Compound I concentration not given
Protocol: as §1, §2

| Molecule | effect of caspase inhibitor on Compound I/SAHA-induced apoptosis [1] | Compound I + SB % of apoptotic cells ([1]; Table 6, 24 hr, sodium butyrate (SB; 1 or 2 mM), Compound I concentration not given) [%] | Compound I + SB % of apoptotic cells [2] [%] |
| --- | --- | --- | --- |
| COC(=O)CC(NC(=O)OC(C)(C)C)C(=O)CF (stereo not shown) [BOC-fmk] | markedly inhibited apoptosis |  |  |
| CCCC(=O)[O-].[Na+] [SB, sodium butyrate] |  | 5.1 ± 2.2 | 6.4 ± 2.8 |
| IETD-fmk | minimally effective |  |  |

From US20060100140A1, “Combination of a) n-{5-[4-(4-methyl-piperazino-methyl)-benzoylamido]2-methylphenyl}-4- (3-pyridyl)-2-pyrimidine-amine and b) a histone deacetylase inhibitor for the treatment of leukemia” (priority 2002, published 2006)
